Experimental data: patent publication US8329681B2, “Methods and compositions for the efficient delivery of therapeutic agents to cells and animals” (University of Massachusetts, priority 2005, dated 2012)

What was measured:
[1] = system: A-549, FL83B and HeLa cells; experiment: Transfection of pSV-β-gal plasmid, overall statement without cell line; format: cell-based; details: alone without any co-lipids
Description: Cells were seeded at a density of 20,000 (for HeLa cells), 16,000 (for A-549 cells), 8,000 (for FL83B cells) per well in a 96-well plate 18-24 h before transfection. An amount of 0.30 μg of pDNA was complexed with varying amounts of lipids (to give +/− ratios of 0.3:1, 1:1, 3:1 and 9:1) in plain OPTIMEM (total volume made up to 100 μl) and then shaken on a rotary shaker at room temperature for 20-30 minutes. The complexes were then added to the cells. After 5 h of incubation, 200 μl of complete medium containing 10% FBS in DMEM for HeLa and 10% FBS in F-12K for FL83B and A549 was added to the cells. The medium was changed after 24 h and the reporter gene activity was estimated 48 h after transfection. Cells were washed with PBS (100 μl) and lysed in […] lysis buffer (5× reporter lysis buffer diluted to 1×, working concentration). The β-galactosidase activity per well was estimated by adding 50 μl of 2× substrate solution (1.33 mg/ml of ONPG, 0.2 M sodium phosphate, pH 7.15 and 2 mM magnesium chloride) to the lysate in a 96-well plate. Absorbance of the product ortho-nitrophenol was measured at 420 nm. The absorbance values reported are the average values from two replicate experiments performed in the same plate on the same day. Each transfection experiment was performed three times on three different days to control for variations in transfection efficiency. […]

FL83B cells = experiment: Cell Titer 96 AQueous One Solution (MTS) cytotoxicity assay; format: cell-based, rat; details: liposomal formulation alone or in combination with DOPE and DOPC as co-lipid
Description: Alternatively, the cytotoxicity of the lipids was measured using the Cell Titer 96® AQueous One Solution Cell Proliferation Assay. The Cell Titer 96® AQueous One Solution Reagent contains a tetrazolium compound [3-(4,5-dimethylthiazol-2-yl)-5-(3-carboxymethoxyphenyl)-2(4-sulfophenyl)-2H-tetrazolium, inner salt; MTS^17] and an electron coupling reagent (phenazine ethosulfate; PES). The cytotoxicity assay was performed in 96 well plates by maintaining the ratio of number of cells to amount of cationic lipid constant as in transfection experiments. MTS was added 24 hours after transfection. Cell Titer 96® AQueous One Solution Reagent (20 ul) was pipetted into each well of the 96-well assay plate containing the samples in 100 μl of culture medium. In case of HeLa cells the plates were incubated for 2 hours, whereas for FL83B cells, plates were incubated for 4 hours at 37° C. in a humidified, 5% CO2 atmosphere. Absorbance was then recorded at 490 nm.
In a second experiment, FL83B and HeLa cells were plated on 96 well plate 18 hours prior to transfection. Then, liposome was added to each well and incubated for 24 hours. Thereafter, Cell Titer 96® AQueous One Solution Reagent was added and incubated for 4 hours. The MTS tetrazolium compound (Owen's reagent) is bioreduced by viable cells into a colored formazan product that is soluble in tissue culture […]. The absorbance of the formazan was measured at 490 nm with a 96 well plate reader.

CDK9 expression = experiment: Liposome-mediated CDK9 siRNA gene knock-down in FL83B cells, real-time RT-PCR; format: cell-based, rat; details: CDK9 siRNA transfected with liposome
Description: Total RNA was extracted from tissues or cultured cells using Trizol (Invitrogen, Carlsbad, Calif.), and real-time RT-PCR for CDK9 and GAPDH mRNA quantification was carried out using 200 ng of total RNA and the QuantiTect SYBR Green RT-PCR Kit (Qiagen, Valencia, Calif.) according to the manufacturer's instructions. The ratio of CDK9 and GAPDH mRNA was calculated and expressed as a group average relative to the control group. The specific probe for detection of CDK9 mRNA levels was designed to the following regions of the CDK9 mRNA ORF, the forward primer 5′ TCGGACCAA AGCCTCACCGTATAA 3′, the reverse primer 5′ […] TTG 3′
FL83B were cultured in F-12K medium (ATCC, Manassas, Va.) with 10% fetal bovine serum at 37° C. in 5% CO2. FL83B were plated on 6-well plates at 70% confluency 24 hours before transfection. […] Gene silencing was monitored by Real-time RT-PCR.
The complexes of CDK9 siRNA (2 μg) and DOATP-Chol (10 μg) or DMTAP-Chol (10 μg) or Transfast-Chol […] were added to Opti-MEM I medium and cells were incubated in the mixture for 6 hr. […] RNA was extracted from cells using Trizol Reagent and real-time RT-PCR for CDK9 and GAPDH mRNA quantification was carried out using 200 ng of total RNA and the QuantiTect SYBR Green RT-PCR Kit. The ratio of CDK9 and GAPDH mRNA was calculated and expressed as a group average relative to the control group. […]

CCCCCCCCC=CCCCCCCCC(=O)OC(COC(=O)CCC(=O)OC1CCC2(C)C(=CCC3C2CCC2(C)C(C(C)CCCC(C)C)CCC32)C1)C[N+](C)(C)C.[I-] (stereo not drawn) [Lipid 8, N,N,N-Trimethyl-N-[2-(9(Z)-octadecanoyloxy),3-succinyloxy(4-cholesteryloxy)-propyl]ammonium iodide]
transfection efficiency of lipid alone compared with lipid in combination with DOPE and DOPC [1]: about as efficient | cytotoxicity as compared to a control (FL83B cells): non-toxic | knockdown of CDK9 expression (CDK9 expression): 67%
